One compound from PMC7887336, “Altered functional properties of the codling moth Orco mutagenized in the intracellular loop-3” (Scientific Reports, 2021) can be followed below.

Changes are numbered by the printed parent chain. Like-named read-outs stand apart in the source and are kept apart here.

One experiment has as its target T1, CpomOrco+OR3 (Cydia pomonella, UniProt H9A5M3).
T1 sequence (H9A5M3 1-426): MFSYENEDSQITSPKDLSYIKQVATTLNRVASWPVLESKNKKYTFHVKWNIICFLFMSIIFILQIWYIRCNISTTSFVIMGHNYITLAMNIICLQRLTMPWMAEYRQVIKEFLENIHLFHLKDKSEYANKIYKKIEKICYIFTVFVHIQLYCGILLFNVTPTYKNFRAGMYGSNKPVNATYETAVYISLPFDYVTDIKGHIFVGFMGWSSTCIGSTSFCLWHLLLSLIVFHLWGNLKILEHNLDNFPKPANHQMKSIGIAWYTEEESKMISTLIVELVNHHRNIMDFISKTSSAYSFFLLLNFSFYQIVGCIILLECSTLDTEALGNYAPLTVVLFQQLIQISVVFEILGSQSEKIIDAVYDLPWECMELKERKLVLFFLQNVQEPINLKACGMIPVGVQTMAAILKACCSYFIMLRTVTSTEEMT
T1 sequence (H9A5M2 1-473 partner): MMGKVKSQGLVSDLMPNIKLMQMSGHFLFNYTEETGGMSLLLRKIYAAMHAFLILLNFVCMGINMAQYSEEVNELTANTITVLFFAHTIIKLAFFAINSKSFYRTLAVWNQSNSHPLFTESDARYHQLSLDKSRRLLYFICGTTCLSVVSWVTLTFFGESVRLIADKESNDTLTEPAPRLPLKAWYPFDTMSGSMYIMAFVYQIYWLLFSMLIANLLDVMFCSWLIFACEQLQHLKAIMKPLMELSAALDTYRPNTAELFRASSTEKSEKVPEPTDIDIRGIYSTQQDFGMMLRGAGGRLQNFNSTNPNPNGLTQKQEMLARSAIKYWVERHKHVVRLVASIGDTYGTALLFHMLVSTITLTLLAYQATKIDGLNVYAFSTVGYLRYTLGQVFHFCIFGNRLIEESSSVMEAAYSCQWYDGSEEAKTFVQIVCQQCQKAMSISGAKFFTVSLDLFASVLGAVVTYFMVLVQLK
The experiment is described as follows: Calcium imaging of HEK293T cells co-expressing CpomOrco and CpomOR3, pear ester stimulation. The format is cell-based. The procedure: (§1) HEK293 cells lines (HEK293A/HEK293T) were grown in HEK cell media [Dulbecco's modified Eagle's medium containing 10% fetal bovine serum (MP Biomedicals, Solon, OH, USA), 2.0 mM L-glutamine, and 100 µg/mL penicillin/streptomycin (Invitrogen)] at 37 °C and 5% CO2. To test transient expression of wild type CpomOrco and CpomOrco^Q417H variant for calcium imaging and patch-clamp recording, 35-mm petri dishes containing semi-confluent HEK293A cells were transiently transfected. Cells were transfected with 0.6 µg of pcDNA40-DEST carrying the coding sequence of the CpomOrco variant (depending on the experiments). To report expression for calcium imaging experiments, 0.6 µg of a separate plasmid DNA [pEBFP2-Nuc, a gift from Robert Campbell (Addgene plasmid # 1489352)] carrying the coding sequence for a blue fluorescent protein (EBFP) was co-transfected. To report expression in patch-clamp recordings, 1.0 µg of a separate plasmid DNA (pXOOM, Clontech, Mountain View, CA, USA) carrying the coding sequence for a green fluorescent protein (GFP) was co-transfected. Expressions of fluorescent reporter genes were under the regulation of the same promoter for Cpom-genes (CMV). For specific experiments, co-transfections were conducted combining an additional 1.2 µg of pcDNA40-DEST/CpomOR3 or pcDNA40-DEST/CpomOR6a, as we previously described. Co-transfections with CpomOR3 were performed for dose–response experiments to pear ester: CpomOR3 was co-expressed with CpomOrco variants by the use of HEK293T (Fig. 3b); given the reported functional co-expression data of the CpomOrco + OR3 heteromers by the use of these specific cells. In brief, transfection DNAs were dissolved in 100 µL sterile DMEM, mixed with 3.0 µL Calfectin (SignaGen, Rockville, MD, USA) following the recommended protocol. Transfections were conducted overnight for up to 18 h, HEK cell media was replaced with 2.0 mL fresh media to incubate cells at 37 °C for up to 6–8 h, at which point part of the cell culture was spread in the middle of a 35-mm plate as individual cells or small clusters and rinsed at the sides with 2.0 mL fresh HEK media. After splitting, cells were allowed to recover for at least 1 day prior to calcium imaging. […]
(§2) Fluorescence imaging was performed using settings optimized for Imaging Workbench 6 software (INDEC BioSystems, Santa Clara, CA, USA)[14]. […] Each cell was assigned a region of interest (ROI) and changes in fluorescence intensity within each ROI were measured and expressed as the fractional change in fluorescence intensity (dF). Stored time series image stacks were analysed off-line using Imaging Workbench 6, Clampfit 10.5 (Molecular Devices) and SigmaPlot 11 (Systat Software Inc., San Jose, CA, USA). […]

The next experiment concerns the target T2, CpomOrco^Q417H+OR3 (Cydia pomonella, UniProt H9A5M3).
T2 construct: variant as stated: Q417H
T2 sequence (H9A5M3 1-426): T1 sequence (H9A5M3 1-426)
T2 sequence (H9A5M2 1-473 Q417H partner): T1 sequence (H9A5M2 1-473 partner) with Q417H
The experiment is described as follows: Calcium imaging of HEK293T cells co-expressing CpomOrco^Q417H and CpomOR3, pear ester stimulation. The format is cell-based. Here is the method: as §1, §2

For the compound `CCCCC/C=C\C=C\C(=O)OCC` [pear ester, ethyl (E,Z)-2,4 decadienoate], the “Hill coefficient (cooperativity coefficient h)” value on CpomOrco+OR3 is listed as ~ 4.6; on CpomOrco+OR3 (listed as Pear ester), ~ 4.6 ± 2.4; at CpomOrco^Q417H+OR3 it was ~ 4.6; at CpomOrco^Q417H+OR3 (listed as Pear ester), ~ 4.6 ± 0.4. Further, the EC50 at CpomOrco+OR3 (Hill fit) was approximately 210 µM; on CpomOrco^Q417H+OR3 (Hill fit) it was approximately 733 µM. In addition, the figures for the “maximum response (Hill fit of calcium response amplitudes)” value on CpomOrco+OR3 (N = 160 cells) and at CpomOrco^Q417H+OR3 (N = 262 cells) were ~ 6.6 ± 0.3 ∆F and ~3.7 ± 0.1 ∆F, respectively.

As a reminder, the EC50 is the midpoint of the concentration-response curve.
